Measured values from publication PMC4806491, “The milk-derived fusion peptide, ACFP, suppresses the growth of primary human ovarian cancer cells by regulating apoptotic gene expression and signaling pathways” (BMC Cancer, 2016).
Converted amounts (≈) assume the structure as drawn. Like-named read-outs stand apart in the source and are kept apart here. Positions of bridges follow the written chain, without caps; N, C: chain ends. Residues, ends and D or L forms follow the SMILES beside them.

Assays:
Format in all cases: cell-based, human
[1] = system: primary ovarian cancer cells; assay: Real time PCR of bcl-xl, bax, akt, caspase-3, CDC25C and cyclinB1 mRNA; conditions: increasing concentration, 48 h, 2^-ΔΔCt, β-actin reference, 12 patients
From the text: An optimized RT-PCR protocol was employed to analyze the mRNA levels of bcl-xl, bax, akt, caspase-3, CDC25C and cyclinB1. Beta-actin was used as a housekeeping gene. According to primer sequences of bcl-xl, bax, akt, caspase-3, CDC25C, cyclinB1 and β-actin genes retrieved from Primer-Bank, primers were designed with the Primer 5.0 software, which were synthesized by Shanghai Sangon Biological Engineering Technology. These primer sequences are as follows: • bcl-xl forward 5′-[…]-3′, • bcl-xl reverse 5′-[…]-3′; • bax forward 5′-[…]-3′, • bax reverse 5′-[…]-3′; • akt forward 5′-[…]-3′, • akt reverse 5′-[…]-3′; • caspase-3 forward 5′-[…]-3′, • caspase-3 reverse 5′[…]-3′; • CDC25C forward 5′-[…]-3′, • CDC25C reverse 5′-[…]-3′; • cyclinB1 forward 5′-[…]-3′, • cyclinB1 reverse 5′-[…]-3′; • β-actin forward 5′-[…]-3′, • β-actin reverse 5′-[…]-3′.
Primary ovarian cancer cells were harvested after ACFP treatment at different doses and times, respectively. The total RNAs in the primary ovarian cancer cells were extracted according to the Trizol kit manufacturer’s instructions, and the purity and concentration were determined by ultraviolet spectrophotometry. […]
Real time PCR adopts TaKaRa SYBR Green as real time PCR Master Mix in ABI7500 fluorescent real-time PCR instrument. […] Finally, the relative mRNA expression of all samples were calculated using the 2^-ΔΔCt method. […]

[2] = system: primary ovarian cancer cells
Protocol: Fresh primary ovarian tumor tissues that were assessed and classified as serous ovarian adenocarcinoma (III-IV grade) according to WHO criteria were collected from 53 ovarian cancer patients who underwent initial debulking surgery at the first affiliated hospital of Anhui Medical University between June 2012 and June 2014. All patients had not received adjuvant therapies, such as chemotherapy or radiotherapy, prior to surgery. For comparison, normal ovarian glandular epithelium cells (NOGECs) were cultured from fresh primary normal ovarian tissues harvested from 7 patients with uterine fibromas, which were confirmed as negative for any neoplastic disease by pathological examination. Prior to tissue deposition, all patients signed written consent forms confirming their donation of tissue for research purposes according to the Declaration of Helsinki. This study was approved by the Anhui Medical University Review Board. Tumor or normal ovarian tissues were cut into small 1.0 mm^3 pieces, rinsed two times in phosphate buffered saline (PBS) and digested with 0.25 % trypsin in a sterile centrifuge tube at 37 °C for 30 min. To obtain a single cell suspension cell, digested tissues were filtered with a 100 μm cell strainer. Cells were collected by centrifugation at 1000 rpm for five minutes, and the cell pellet was re-suspended in Dulbecco’s modified eagle medium (DMEM) supplemented with 10 % fetal bovine serum (FBS). Cells were subsequently cultured in DMEM containing 0.1 mg/L epidermal growth factor (EGF), 0.1 mg/L insulin-like growth factor (IGF) and 0.1 mg/L beta-estradiol with 10 % FBS in 5 % CO2 at 37 °C. Once cells reached 70 to 80 % confluence, cell culture medium was drained from the flask, and cells were digested with 0.25 % collagenase II until approximately 1/3 of the cells fell to the bottom of the dish by eye using a microscope. Due to their initial shedding, most fibroblasts were eliminated by collagenase digestion. The remaining cells were cultured in 5 % CO2 at 37 °C. To determine purity, cells were analyzed using immunofluorescence of cytokeratin 7 (for ovarian cancer cells) or cytokeratin 19 (for normal ovarian epithelium cells).
Primary ovarian cancer cells were seeded into 96-well plates in sextuplicate at a starting density of 5 × 10^3 cells/well and incubated with ACFP at the concentrations: 0 (as control), 5 × 10^−6, 5 × 10^−5, 5 × 10^−4, 5 × 10^−3, 5 × 10^−2, 5 × 10^−1 and 5 g/L for 24, 48 and 72 h, respectively. Cells treated with paclitaxel at 5 × 10^−4 g/L were included in the same plate as a positive control. Cell viability was later measured using the WST-1 (water-soluble tetrazolium 1) cell viability and cytotoxicity assay kit (Beyotime, Haimen, China) according to the manufacturer’s instructions. The percent viability of cells was calculated using the formula to calculate the cell viability ratio (VR): VR (%) = (the experimental group A450nm value/control group A450nm value) × 100 %. To assess general toxicity of ACFP, viability of normal ovarian cells treated with ACFP was assayed using the same procedure. The effect of ACFP was compared with LfcinB and PGPIPN (the products of Shanghai Sangon Biological Engineering Technology, China). Each experiment was performed in two independent sets.

[3] = system: primary ovarian cancer cells; assay: Western blot of Bcl-xl, Bax, Akt, Caspase-3, CDC25C and CyclinB1 proteins; conditions: 48 h
Protocol: Proteins were isolated from primary ovarian cancer cells harvested after ACFP treatment, separated by SDS-PAGE and transferred to PVDF membrane using the standard protocol. After blocking with 5 % (w/v) dry skim milk, membranes were incubated with primary antibodies (mouse monoclonal Bcl-xl, Bax, Akt, Caspase-3, CDC25C, CyclinB1 and β-Actin antibodies, 1:1000 dilution) according to the manufacturer’s instructions and later incubated with a horseradish peroxidase conjugated secondary antibody (goat anti-mouse IgG, 1:8000 dilution). The proteins were detected with the enhanced chemiluminescence (ECL) system followed by exposure to X-ray film. The β-Actin was used as a loading control. Two independent experiments were performed. Digital images were captured by Gel DocTM gel documentation system (Bio-Rad, USA) and intensities were quantified using Quantity-One software version 4.62 (Bio-Rad, USA).

[4] = system: normal ovarian glandular epithelium cells (NOGECs); assay: WST-1 viability assay, general toxicity; conditions: WST-1, compared with paclitaxel, Fig. 3b, cells from 7 patients
Protocol: Fresh primary ovarian tumor tissues that were assessed and classified as serous ovarian adenocarcinoma (III-IV grade) according to WHO criteria were collected from 53 ovarian cancer patients who underwent initial debulking surgery at the first affiliated hospital of Anhui Medical University between June 2012 and June 2014. All patients had not received adjuvant therapies, such as chemotherapy or radiotherapy, prior to surgery. For comparison, normal ovarian glandular epithelium cells (NOGECs) were cultured from fresh primary normal ovarian tissues harvested from 7 patients with uterine fibromas, which were confirmed as negative for any neoplastic disease by pathological examination. […] To determine purity, cells were analyzed using immunofluorescence of cytokeratin 7 (for ovarian cancer cells) or cytokeratin 19 (for normal ovarian epithelium cells).
Primary ovarian cancer cells were seeded into 96-well plates in sextuplicate at a starting density of 5 × 10^3 cells/well and incubated with ACFP at the concentrations: 0 (as control), 5 × 10^−6, 5 × 10^−5, 5 × 10^−4, 5 × 10^−3, 5 × 10^−2, 5 × 10^−1 and 5 g/L for 24, 48 and 72 h, respectively. […] Cell viability was later measured using the WST-1 (water-soluble tetrazolium 1) cell viability and cytotoxicity assay kit (Beyotime, Haimen, China) according to the manufacturer’s instructions. […]

CC[C@H](C)[C@@H]1NC(=O)[C@H](CO)NC(=O)[C@@H]2CCCN2C(=O)[C@H](C)NC(=O)CNC(=O)[C@H](CC(C)C)NC(=O)[C@H](CCCCN)NC(=O)[C@H](CCCCN)NC(=O)[C@H](CCSC)NC(=O)[C@H](CCCNC(=N)N)NC(=O)[C@H](Cc2c[nH]c3ccccc23)NC(=O)[C@H](CCC(N)=O)NC(=O)[C@H](Cc2c[nH]c3ccccc23)NC(=O)[C@H](CCCNC(=N)N)NC(=O)[C@H](CCCNC(=N)N)NC(=O)[C@@H](NC(=O)[C@H](CCCCN)NC(=O)[C@@H](N)Cc2ccccc2)CSSC[C@@H](C(=O)N[C@H](C(=O)N[C@@H](CCCNC(=N)N)C(=O)N[C@@H](CCCNC(=N)N)C(=O)N[C@@H](C)C(=O)N[C@@H](Cc2ccccc2)C(=O)NCC(=O)NCC(=O)NCC(=O)NCC(=O)N[C@@H](CO)C(=O)N2CCC[C@H]2C(=O)NCC(=O)N2CCC[C@H]2C(=O)N[C@H](C(=O)N2CCC[C@H]2C(=O)N[C@@H](CC(N)=O)C(=O)O)[C@@H](C)CC)C(C)C)NC(=O)[C@H]([C@@H](C)O)NC1=O [ACFP] (H-FKCRRWQWRMKKLGAPSITCVRRAFGGGGSPGPIPN-OH; disulfide 3-20; N-terminus and C-terminus assumed)
mRNA expression of bax and caspase-3 [1]: gradual increase
mRNA expression of bcl-xl, akt, CDC25C and cyclinB1 [1]: gradually decreased
IC50, cell viability ([2]; 24 h): 11.5 µg/mL (≈ 2.86 µM)
IC50, cell viability ([2]; 48 h): 1.63 µg/mL (≈ 0.406 µM)
IC50, cell viability ([2]; 72 h): 0.388 µg/mL (≈ 0.0966 µM)
growth of human primary ovarian cells ([2]; different concentrations, 48 h, in vitro, n=12, Figure S1): decreased growth
protein levels of Bax and Caspase-3 ([3]; different concentrations, compared to control-treated group): elevated
protein levels of Bcl-xl, Akt, CDC25C and CyclinB1 ([3]; increasing drug concentration): gradually decreased
cytotoxicity toward normal primary ovarian cells [4]: little or no cytotoxicity
